Test results as given in patent publication US9309263B2, “Fused multi-cyclic sulfone compounds as inhibitors of beta-secretase and methods of use thereof” (AMGEN INC., priority 2013, dated 2016).
Read-outs that look alike come from different tables or passages of the source.

Legend:
[1] = biological target: Beta Secretase enzyme (BACE) (Homo sapiens, UniProt P56817); test: In vitro enzymatic BACE FRET assay; assay type: biochemical; conditions: read-out: BACE1 FRET assay IC50
Experimental: In Vitro Enzymatic BACE FRET (Fluorescence Resonance Energy Transfer) Assay (Enzyme Assay Data in the Example Table I)
The assay buffer used in this screen is 0.05 M acetate, pH 4.2, 10% DMSO final, 100 uM genapol (which is a nonionic detergent, below its Critical Micelle Concentration). The Beta Secretase enzyme (0.2 nM) is pre-incubated for one hour with inhibitors, typically in about 1 uL of DMSO according to a serial dilution, are added thereto. This assay is effectively started by the addition of FRET substrate (50 nM) and the combination is incubated for one hour. The FRET assay is terminated with by addition of Tris buffer, which raises the pH to neutrality, and the fluorescence is determined. The FRET substrate is a peptide with commercially available fluorophore and quencher, on opposite sides of the BACE cleavage site. Proteolytic cleavage of the FRET substrate releases quenching of fluorescence (excitation 488 nm and […]).

[2] = tested on: Aβ 40 in conditioned medium of cells stably expressing Amyloid Precursor Protein (APP); test: In vitro BACE cell-based assay (Aβ 40 sandwich ELISA); conditions: Homo sapiens, HEK293
Experimental: In Vitro BACE Cell-Based Assay
The cell-based assay measures inhibition or reduction of […] in conditioned medium of test compound treated cells expressing amyloid precursor protein.
Cells stably expressing Amyloid Precursor Protein (APP) were plated at a density of 40K cells/well in 96 well plates (Costar). The cells were cultivated for 24 hours at 37° C. and 5% CO2 in DMEM supplemented with 10% FBS. The test compounds were then added to cells in 10-point dose response concentrations with the starting concentration being either 100 μM or 10 μM. The compounds were diluted from stock solutions in DMSO and the final DMSO concentration of the test compounds on cells was 0.1%. After 24 h of incubation with the test compounds the supernatant conditioned media was collected and the Aβ 40 levels were determined using a sandwich ELISA. The IC50 of the compound was calculated from the percent of control or percent inhibition of Aβ 40 as a function of the concentration of the test compound.
The sandwich ELISA to detect Aβ 40 was performed in 96 well microtiter plates, which were pre-treated with goat anti-rabbit IgG (Pierce). The capture and detecting antibody pair that were used to detect Aβ 40 from cell supernatants were affinity purified pAb40 (Biosource) and biotinylated 6E10 (Signet Labs Inc.), respectively. The optimal concentration for the pAb40 antibody was 3 μg/ml in Superblock/TBS (Pierce) that was supplemented with 0.05% Tween 20 (Sigma). Optimal concentration for the detection antibody 6E10-biotinylated was 0.5 μg/ml in Superblock/TBS (Pierce) that had been supplemented with 2% normal goat serum and 2% normal mouse serum.
Cellular supernatants were incubated with the capture antibody for 3 h at 4° C., followed by 3 wash steps in TBS-tween (0.05%). The detecting antibody incubation was for 2 h at 4° C., again followed by the wash steps as described previously. The final readout of the ELISA is Time-Resolved Fluorescence (counts per minute) using Delfia reagents Streptavidin-Europium and Enhancement solutions (Perkin Elmer) and the Victor 2 multilabel counter (Perkin Elmer).

Cathepsin D (Cat D) = Cathepsin D (Cat D) (Homo sapiens, UniProt P07339); test: In vitro enzymatic Cathepsin D (Cat D) FRET assay; assay type: biochemical
Experimental: In Vitro Enzymatic Cathepsin D (Cat D) FRET (Fluorescence Resonance Energy Transfer) Assay
Recombinant Cat D was expressed in CHO cells. The assay buffer for CathepsinD is 0.05 M citrate pH 3.5, 10% DMSO final, 5 mM CHAPS. The Cat D enzyme (9 nM) is pre-incubated for one hour with inhibitors, typically in about 1 uL of DMSO according to a serial dilution, is added thereto. The assays are effectively started by the addition of different FRET substrates (20 nM for Cat D) and the combination is incubated for one hour. The FRET assay is terminated with by addition of Tris buffer, which raises the pH to neutrality, and the fluorescence is determined. The FRET substrate is a peptide with commercially available fluorophore and quencher, on opposite sides of the BACE cleavage site. The Cat D substrate peptide sequence is based on sequence #1 of Table 1 from Gulnik et al. FEBS Letters v413 p 379-384 1997. Proteolytic cleavage of the FRET substrate releases quenching of fluorescence (Cat D excitation 500 nm and emission 580 nm). […]
See, for instance, examples 8, 12, 15, 16, 18, 21-23, 24, 25, 26, 29, 30, 32, 41-42, 45, 53, 54, 57, 63, 67-69, 72-74, 76, 79-81, 83 & 84 (to point to just a few; referring to data in Table 2). […] See, for instance, examples 8, 12, 15, 18, 21-23, 25, 29, 30, 32, 41-42, 45, 54, 57, 67-68, 72-73, 76, 80-81, 84, 86, 91-92 & 100 (to point out those from compound examples 1-100; and with reference to data in Table 2).

[3] = average IC50, in vitro enzymatic BACE FRET assay
[4] = average IC50, HEK cell assay, Aβ 40 readout
[5] = Cathepsin D FRET assay, read-out: CatD IC50
[6] = text summary referring to data in Table 2

Chain of Cathepsin D (Cat D) (P07339 65-412, species assumed): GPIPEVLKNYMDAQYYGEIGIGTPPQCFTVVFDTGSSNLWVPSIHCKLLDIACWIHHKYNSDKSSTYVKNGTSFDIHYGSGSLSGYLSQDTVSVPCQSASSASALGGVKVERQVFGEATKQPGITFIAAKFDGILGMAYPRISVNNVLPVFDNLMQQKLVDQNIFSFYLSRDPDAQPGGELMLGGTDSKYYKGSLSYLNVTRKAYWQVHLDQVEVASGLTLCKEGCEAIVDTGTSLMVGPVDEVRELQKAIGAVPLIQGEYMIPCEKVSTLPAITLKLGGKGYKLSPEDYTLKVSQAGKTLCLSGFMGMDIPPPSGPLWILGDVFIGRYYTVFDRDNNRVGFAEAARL
Chain of Beta Secretase enzyme (BACE) (P56817 46-501): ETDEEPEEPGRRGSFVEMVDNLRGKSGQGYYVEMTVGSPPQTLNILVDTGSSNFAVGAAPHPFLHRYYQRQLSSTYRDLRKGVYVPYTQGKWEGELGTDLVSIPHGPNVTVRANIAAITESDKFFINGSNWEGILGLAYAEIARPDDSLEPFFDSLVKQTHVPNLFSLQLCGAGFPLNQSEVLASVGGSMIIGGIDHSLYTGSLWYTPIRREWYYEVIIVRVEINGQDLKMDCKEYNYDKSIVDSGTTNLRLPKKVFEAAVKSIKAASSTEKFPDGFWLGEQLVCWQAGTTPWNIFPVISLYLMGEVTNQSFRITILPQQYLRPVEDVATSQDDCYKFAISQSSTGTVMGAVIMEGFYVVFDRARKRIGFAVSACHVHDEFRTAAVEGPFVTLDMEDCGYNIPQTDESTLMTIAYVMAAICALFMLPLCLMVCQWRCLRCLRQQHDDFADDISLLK

`CC(C)Oc1cnc2c(Nc3ccc4c(c3)[C@@]3(CF)N=C(N)C(C)(C)S(=O)(=O)[C@@H]3CCO4)nccc2n1` [Example 150, (4aR,11bS)-11b-(fluoromethyl)-3,3-dimethyl-N^~10^~-(2-(1-methylethoxy)pyrido[3,4-b]pyrazin-5-yl)-4a,5,6,11b-tetrahydro-3H-[1]benzoxepino[4,5-b][1,4]thiazine-2,10-diamine 4,4-dioxide] showed an IC50 [1, 3] of 0.227 µM, an IC50 [2, 4] of 1.4 µM and an IC50 (Cathepsin D (Cat D); [5]) greater than 400 µM.
Work on `COc1cnc2c(Nc3ccc4c(c3)[C@@]3(C)N=C(N)C(C)(C)S(=O)(=O)[C@@H]3C[C@H](C)O4)nccc2n1` [Example 53, (4aR,6S,11bR)-N^~10^~-(2-methoxypyrido[3,4-b]pyrazin-5-yl)-3,3,6,11b-tetramethyl-4a,5,6,11b-tetrahydro-3H-[1]benzoxepino[4,5-b][1,4]thiazine-2,10-diamine 4,4-dioxide] yielded an IC50 ([1]; average IC50) of 0.032 µM, an IC50 ([2]; HEK cell, average IC50) of 0.011 µM and an IC50 (Cathepsin D (Cat D); read-out: CatD IC50) of 977 µM. The IC50 (Cathepsin D (Cat D); [6]) was greater than 800 µM.
Work on `Cc1cc(C#N)cnc1C(=O)Nc1cnc2c(c1)[C@@]1(C)N=C(N)C(C)(C)S(=O)(=O)[C@H]1CCO2` [Example 21, N-((4aS,11bR)-2-amino-3,3,11b-trimethyl-4,4-dioxido-4a,5,6,11b-tetrahydro-3H-pyrido[3′,2′:6,7]oxepino[4,5-b][1,4]thiazin-10-yl)-5-cyano-3-methyl-2-pyridinecarboxamide] yielded an IC50 ([1]; average IC50) of 0.007 µM, an IC50 ([2]; HEK cell, average IC50) of 0.026 µM and an IC50 (Cathepsin D (Cat D); read-out: CatD IC50) of 1420 µM.
Compound `COc1cnc(C(=O)Nc2ccc3c(c2)[C@@]2(C)N=C(N)C(C)(C)S(=O)(=O)[C@H]2CCC3)c(C)c1` [Example 32, N-((4aS,11bR)-2-amino-3,3,11b-trimethyl-4,4-dioxido-3,4a,5,6,7,11b-hexahydrobenzo[3,4]cyclohepta[1,2-b][1,4]thiazin-10-yl)-5-methoxy-3-methyl-2-pyridinecarboxamide] has an IC50 ([1]; average IC50) of 0.073 µM, an IC50 ([2]; HEK cell, average IC50) of 0.021 µM and an IC50 (Cathepsin D (Cat D); read-out: CatD IC50) of 1340 µM. For the same compound, the IC50 (Cathepsin D (Cat D); [6]) was greater than 1200 µM.
`CC#CCOc1cnc(C(=O)Nc2ccc3c(c2)[C@@]2(C)N=C(N)C(C)(C)S(=O)(=O)[C@@H]2CC(C)(C)O3)cn1` [Example 98, N-((4aR,11bR)-2-amino-3,3,6,6,11b-pentamethyl-4,4-dioxido-4a,5,6,11b-tetrahydro-3H-[1]benzoxepino[4,5-b][1,4]thiazin-10-yl)-5-(2-butyn-1-yloxy)-2-pyrazinecarboxamide] was tested, and the IC50 [1, 3] was 0.002 µM, the IC50 [2, 4] was 0.0005 µM and the IC50 (Cathepsin D (Cat D); [5]) was 318 µM.
For `COc1ccc(C(=O)Nc2ccc3c(c2)[C@@]2(C)N=C(N)C(C)(C)S(=O)(=O)[C@@H]2C[C@H](C)O3)nc1` [Example 72, N-((4aR,6S,11bR)-2-amino-3,3,6,11b-tetramethyl-4,4-dioxido-4a,5,6,11b-tetrahydro-3H-[1]benzoxepino[4,5-b][1,4]thiazin-10-yl)-5-methoxy-2-pyridinecarboxamide], the IC50 ([1]; average IC50) was 0.011 µM, the IC50 ([2]; HEK cell, average IC50) was 0.005 µM and the IC50 (Cathepsin D (Cat D); read-out: CatD IC50) was 1390 µM. The IC50 (Cathepsin D (Cat D); [6]) was greater than 1200 µM.
Work on `C[C@H]1C[C@@H]2[C@](C)(N=C(N)C(C)(C)S2(=O)=O)c2cc(NC(=O)c3ncc(C(F)(F)F)cc3Cl)ccc2O1` [Example 73, N-((4aR,6S,11bR)-2-amino-3,3,6,11b-tetramethyl-4,4-dioxido-4a,5,6,11b-tetrahydro-3H-[1]benzoxepino[4,5-b][1,4]thiazin-10-yl)-3-chloro-5-(trifluoromethyl)-2-pyridinecarboxamide] yielded an IC50 ([1]; average IC50) of 0.011 µM, an IC50 ([2]; HEK cell, average IC50) of 0.004 µM and an IC50 (Cathepsin D (Cat D); read-out: CatD IC50) of 1390 µM. The IC50 (Cathepsin D (Cat D); [6]) was greater than 1200 µM.
Work on `Cc1cc(COc2cnc(C(=O)Nc3ccc4c(c3)[C@@]3(C)N=C(N)C(C)(C)S(=O)(=O)[C@@H]3C[C@H](C)O4)cn2)on1` [Example 78, N-((4aR,6S,11bR)-2-amino-3,3,6,11b-tetramethyl-4,4-dioxido-4a,5,6,11b-tetrahydro-3H-[1]benzoxepino[4,5-b][1,4]thiazin-10-yl)-5-((3-methyl-5-isoxazolyl)methoxy)-2-pyrazinecarboxamide] yielded an IC50 ([1]; average IC50) of 0.007 µM, an IC50 ([2]; HEK cell, average IC50) of 0.026 µM and an IC50 (Cathepsin D (Cat D); read-out: CatD IC50) of 407 µM.
Work on `COc1cnc(C(=O)Nc2ccc3c(c2)[C@@]2(C)N=C(N)C(C)(C)S(=O)(=O)[C@@H]2CCC3)cn1` [Example 10, N-((4aR,11bR)-2-amino-3,3,11b-trimethyl-4,4-dioxido-3,4a,5,6,7,11b-hexahydrobenzo[3,4]cyclohepta[1,2-b][1,4]thiazin-10-yl)-5-methoxy-2-pyrazinecarboxamide] yielded an IC50 ([1]; average IC50) of 0.011 µM, an IC50 ([2]; HEK cell, average IC50) of 0.004 µM and an IC50 (Cathepsin D (Cat D); read-out: CatD IC50) of 340 µM.
`CCCOc1cnc2c(Nc3ccc4c(c3)[C@@]3(C)N=C(N)C(C)(C)S(=O)(=O)[C@@H]3C[C@H](C)O4)nccc2n1` [Example 135, (4aR,6S,11bR)-3,3,6,11b-tetramethyl-N^~10^~-(2-propoxypyrido[3,4-b]pyrazin-5-yl)-4a,5,6,11b-tetrahydro-3H-[1]benzoxepino[4,5-b][1,4]thiazine-2,10-diamine 4,4-dioxide] gave an IC50 [1, 3] of 0.026 µM, an IC50 [2, 4] of 0.139 µM and an IC50 (Cathepsin D (Cat D); [5]) of 104 µM.
In the case of `COc1cnc(C(=O)Nc2ccc3c(c2)[C@@]2(C)N=C(N)C(C)(C)S(=O)(=O)[C@@H]2CCO3)cn1` [Example 166, N-((4aR,11bR)-2-amino-3,3,11b-trimethyl-4,4-dioxido-4a,5,6,11b-tetrahydro-3H-[1]benzoxepino[4,5-b][1,4]thiazin-10-yl)-5-methoxy-2-pyrazinecarboxamide], the IC50 ([1]; average IC50) is reported as 0.017 µM, the IC50 ([2]; HEK cells, average IC50) is reported as 0.0074 µM and the IC50 (Cathepsin D (Cat D); read-out: CatD IC50) is reported as 1130 µM.
`COc1cnc2c(Nc3cnc4c(c3)[C@@]3(C)N=C(N)C5(CCC5)S(=O)(=O)[C@@H]3CCO4)nccc2n1` [Example 60] showed an IC50 ([1]; average IC50) of 0.037 µM, an IC50 ([2]; HEK cell, average IC50) of 0.135 µM and an IC50 (Cathepsin D (Cat D); read-out: CatD IC50) greater than 400 µM.
Compound `COc1cnc(C(=O)Nc2ccc3c(c2)[C@@]2(C)N=C(N)C(C)(C)S(=O)(=O)[C@@]2(F)CCO3)cn1` [Example 89, N-((4aS,11bR)-2-amino-4a-fluoro-3,3,11b-trimethyl-4,4-dioxido-4a,5,6,11b-tetrahydro-3H-[1]benzoxepino[4,5-b][1,4]thiazin-10-yl)-5-methoxy-2-pyrazinecarboxamide] has an IC50 [1, 3] of 0.028 µM, an IC50 [2, 4] of 0.05 µM and an IC50 (Cathepsin D (Cat D); [5]) of 400 µM.
Compound `CC#CCOc1cnc(C(=O)Nc2ccc3c(c2)[C@@]2(C)N=C(N)C(C)(C)S(=O)(=O)[C@]2(F)CCO3)cn1` [Example 94, N-((4aR,11bR)-2-amino-4a-fluoro-3,3,11b-trimethyl-4,4-dioxido-4a,5,6,11b-tetrahydro-3H-[1]benzoxepino[4,5-b][1,4]thiazin-10-yl)-5-(2-butyn-1-yloxy)-2-pyrazinecarboxamide] has an IC50 [2, 4] of 0.008 µM and an IC50 (Cathepsin D (Cat D); [5]) greater than 400 µM.
